PMC12951551, “Do Amino-Oxetanes Resemble Amides? A Matched Molecular Pairs Property and Structural Comparison” (Journal of Medicinal Chemistry, 2026)
Values after ≈ are worked out from the molar mass of the structure shown.

Columns and labels:
[1] = Kinetic solubility; format: physicochemical; settings: for solubility at 24 h: aqueous pH buffer, aqueous buffer, kinetic from dmso stock, 37 °C, 600 µM start; for Kinetic solubility, in words: across acidic, neutral, and basic conditions, compared with benzamide counterpart
Description: Aqueous buffer preparation: pH 3: 50 µL of 1N hydrochloric acid was added to 500 mL of deionized water. The solution was titrated with 1N hydrochloric acid to pH 3, and back titrated with 1N sodium hydroxide. pH 7.4: 100 mM sodium phosphate buffer is made by adding 56.4 g of dibasic sodium phosphate and 10.3 g of monobasic sodium phosphate to 4 L of deionized water. 250 µL of 100 mM sodium phosphate buffer was diluted with 250 µL of deionized water. The solution was titrated with 1N hydrochloric acid to pH 7.4, and back titrated with 1N sodium hydroxide. pH 10: Fisher Scientific pH 10 buffer (SB116-500) containing potassium hydroxide, potassium carbonate, and potassium […]
pH 12.8: 30 mL of 1N NaOH was added to 200 mL of deionized water. The solution was titrated with 1N sodium hydroxide to pH 12.8 and back titrated with 1N hydrochloric acid.
Kinetic solubility: Samples were diluted to 600 µM in the appropriate pH buffer (pH: 3, 7.4, 10) and to 600 µM (assumed 100% solubility) in a DMSO standard. Samples were mixed thoroughly and incubated at 37 °C for 24 h.
Following incubation, pH samples were transferred to a […] PVDF (low binding) and filtered to remove any precipitate. The filtrate was collected and analyzed via MS/MS. The ratio of MS response (DMSO:pH) is taken and multiplied by the initial 600 µM concentration to determine the concentration (solubility) of the samples in pH buffers. […]
(§1) Permeability assay (RRCK): Ralph Russ canine kidney cells were used for permeability measurements using a cell monolayer in 96-transwell format. The detailed assay conditions have been reported previously.9 Test compounds were added to the donor wells and a buffer was added to the receiver wells to start the apical to basolateral transport assay.
(§2) Time 0 and 1.5 h incubation samples were taken for LC-MS/MS analysis. Apparent permeability (Papp) was calculated using the equation below (1), where Area is the surface area of the cell monolayer (0.0625 cm2), CD(0) is the […]

[2] = Permeability assay (RRCK); format: in vitro ADME, canine; settings: dog, MDCK, apical to basolateral, average of 2 runs, footnote b = only one replicate
[3] = Shake flask LogD (SFLogD) assay; format: physicochemical; settings: for logD: pH = 7.4, octanol/water shake flask, average of 2 runs unless otherwise stated
Description: as §1, §2

[4] = test system: human hepatocytes; assay: Human Hepatocyte (HHEP) stability assay, clearance; format: in vitro ADME; settings: for HHEPG clearance: human hepatocytes, 0.5 million cells/mL, 1 µM test compound
Description: Human Hepatocyte (HHEP) assay: The high throughput HHEP stability assay was performed in a 384-well format (Greiner Bio-One, Monroe, NC). The cryopreserved HHEP were thawed, and re-suspended in Williams E medium (WEM, custom formula number 91-5233EC; Invitrogen, Grand Island, NY) supplemented with HEPES and Na2CO3. The cells were counted using the Trypan Blue exclusion method. A multidrop liquid dispenser (Multidrop DW, Thermo Scientific, Waltham, MA) was used to add the HHEP suspensions to the 384-well plates. The cell plates were covered and transferred to a Cytomat 2 incubator (ThermoFisher) and Biomek i7 (Beckman Coulter, Indianapolis, IN), equipped with three 3position MéCour heat exchangers. Test compounds were diluted on the Biomek i7 with buffer (15 µL) and added to the HHEP (30 µL). The final incubation contained 0.5 million cells/mL and 1 µM test compound in 45 µL total volume containing 0.01% DMSO. The incubation was carried out at 37 °C in the Cytomat 2 incubator (relative humidity ≥ 90%, 5% CO2/95% air). At various time points (2, 4, 11, 45, 75, 120, and 240 min), the plate was pulled out from the incubator by the Biomek i7 robot and put on the MéCour heated exchanger. Samples (3 µL) were transferred to a 384-well plate containing 30 µL acetonitrile with an internal standard (IS) to quench the reaction. Water (60 µL) was added to the quenched plate to dilute the organic solvent content for LC-MS/MS analysis. The plates were centrifuged at 3000 rpm for 10 min at 4 °C, sealed and subsequently analyzed using LC-MS/MS without further transfer of the supernatant.
Propranolol (CYP2D6), midazolam (CYP3A) and triazolam (CYP3A, low clearance), naloxone (UGT2B7), carbazeran (AO), and verapamil (CYP3A, CYP2C8) were used as positive controls. For CYP inhibition study, 1 mM ABT (a pan-cYP inhibitor) was pre-incubated with HHEP for 30 minutes at 37 °C before adding test compounds. Values are n >3 unless […]
as §1, §2

[5] = Experimental pKaH (amine basicity); format: physicochemical; settings: Table S2
From the text: The influence of basicity is an ongoing rationale for inclusion of the oxetanes in drug candidates, providing the potential to attenuate off-target effects including hERG channel inhibition. […] As comparison against the benzamide analogue is not possible, we instead looked at the head-to-head comparison between amino-oxetane 4a and benzylamine 18 (Figure ).

Row | solubility at 24 h ([1]; pH 3) [µM] | solubility at 24 h ([1]; pH 7.4) [µM] | solubility at 24 h ([1]; pH 10) [µM] | Papp at 1.5 h [2] [nm/s] | logD [3] | Kinetic solubility, in words [1] | HHEPG clearance [4] [μL min^−1 million^−1] | Change in SFlogD of the carbonyl-to-oxetane replacement ([3]; pH 7.4, amino-oxetane versus matched benzamide) | pKa [5] | Structure (SMILES) | HHEPG clearance, in words ([4]; compared with benzamide counterpart)
1 | < 0.1 | < 0.1 | < 0.8 | 327 | 3.83 | – | – | – | – | COc1ccc(C(=O)NCC23C[C@H]4C[C@@H](C2)C[C@@H](C3)C4)cc1 [1b, N-(((3R,5R,7R)-Adamantan-1-yl)Methyl)-4-Methoxybenzamide] | –
2 | 521 (≈ 140 µg/mL) | 359 (≈ 96.7 µg/mL) | 285 (≈ 76.8 µg/mL) | 365 | 2.49 | higher solubility | 62 | – | – | COc1ccc(C2(NCc3ccccc3)COC2)cc1 [2a, N-Benzyl-3-(4-Methoxyphenyl)Oxetan-3-Amine] | –
3 | 114 (≈ 27.5 µg/mL) | 91 (≈ 22 µg/mL) | 76 (≈ 18.3 µg/mL) | 381 | 2.74 | – | 30 | – | – | COc1ccc(C(=O)NCc2ccccc2)cc1 [2b, N-Benzyl-4-Methoxybenzamide] | –
4 | 461 (≈ 115 µg/mL) | 574 (≈ 144 µg/mL) | 465 (≈ 116 µg/mL) | 322 | 1 | – | < 2 | – | – | COc1ccc(C(=O)NC(C)C(=O)N(C)C)cc1 (stereo not drawn) [3b, N-(1-(Dimethylamino)-1-Oxopropan-2-yl)-4-Methoxybenzamide] | –
5 | 461 (≈ 102 µg/mL) | 574 (≈ 127 µg/mL) | 465 (≈ 103 µg/mL) | 483 | 0.823 | – | < 3 | – | – | COc1ccc(C(=O)N2CCOCC2)cc1 [4b, (4-Methoxyphenyl)(Morpholino)Methanone] | –
6 | 299 (≈ 103 µg/mL) | 223 (≈ 76.8 µg/mL) | 195 (≈ 67.2 µg/mL) | 388 | 1.68 | – | 38 | – | – | COc1ccc(C2(N(C3CC3)C3CCN(C(C)=O)CC3)COC2)cc1 [5a, 1-(4-(Cyclopropyl(3-(4-Methoxyphenyl)Oxetan-3-yl)Amino)Piperidin-1-yl)Ethan-1-One] | –
7 | 465 (≈ 147 µg/mL) | 467 (≈ 148 µg/mL) | 299 (≈ 94.6 µg/mL) | 317 | 1.25 | – | < 4 | – | – | COc1ccc(C(=O)N(C2CC2)C2CCN(C(C)=O)CC2)cc1 [5b, N-(1-Acetylpiperidin-4-yl)-N-Cyclopropyl-4-Methoxybenzamide] | –
8 | 509 (≈ 159 µg/mL) | 505 (≈ 158 µg/mL) | 500 (≈ 156 µg/mL) | – | – | higher solubility | 112 | – | – | COc1ccc(C2(Nc3ccc(NC(C)=O)cc3)COC2)cc1 [6a, N-(4-((3-(4-Methoxyphenyl)Oxetan-3-yl)Amino)Phenyl)Acetamide] | –
9 | 13 (≈ 3.7 µg/mL) | 10 (≈ 2.84 µg/mL) | 8 (≈ 2.27 µg/mL) | 140 | 1.92 | – | 57 | – | – | COc1ccc(C(=O)Nc2ccc(NC(C)=O)cc2)cc1 [6b, N-(4-Acetamidophenyl)-4-Methoxybenzamide] | –
10 | 7 (≈ 2.35 µg/mL) | 8 (≈ 2.68 µg/mL) | 12 (≈ 4.02 µg/mL) | – | – | – | – | – | – | COc1ccc(C2(Nc3ccc4c(c3)OC(F)(F)O4)COC2)cc1 [7a, 2,2-Difluoro-N-(3-(4-Methoxyphenyl)Oxetan-3-yl)Benzo[d][1,3]dioxol-5-Amine] | significantly higher clearance than its benzamide counterpart
11 | < 0.1 | < 0.1 | < 0.1 | 283 | 3.81 | – | – | – | – | COc1ccc(C(=O)Nc2ccc3c(c2)OC(F)(F)O3)cc1 [7b, N-(2,2-Difluorobenzo[d][1,3]dioxol-5-yl)-4-Methoxybenzamide] | –
12 | 412 (≈ 118 µg/mL) | 358 (≈ 103 µg/mL) | 326 (≈ 93.3 µg/mL) | 372 | 2.54 | higher solubility | 42 | – | – | COc1ccc(C2(Nc3ccc(OC)nc3)COC2)cc1 [8a, 6-Methoxy-N-(3-(4-Methoxyphenyl)Oxetan-3-yl)Pyridin-3-Amine] | –
13 | 50 (≈ 12.9 µg/mL) | 31 (≈ 8.01 µg/mL) | 24 (≈ 6.2 µg/mL) | 209 | 2.49 | – | 13 | – | – | COc1ccc(C(=O)Nc2ccc(OC)nc2)cc1 [8b, 4-Methoxy-N-(6-Methoxypyridin-3-yl)Benzamide] | –
14 | – | – | – | 436 | 1.32 | – | 13 | – | – | c1ccc(Oc2ccc(C3(N4CCOCC4)COC3)cc2)nc1 [9a, 4-(3-(4-(Pyridin-2-yloxy)Phenyl)Oxetan-3-yl)Morpholine] | –
15 | – | – | – | 472 | 1.08 | – | < 2 | – | – | O=C(c1ccc(Oc2ccccn2)cc1)N1CCOCC1 [9b, Morpholino(4-(Pyridin-2-yloxy)Phenyl)Methanone] | –
16 | – | – | – | 378 | 1.11 | – | < 2 | – | – | O=C(c1ccc(S(=O)(=O)c2ccccc2)cc1)N1CCOCC1 [10b, Morpholino(4-(Phenylsulfonyl)Phenyl)Methanone] | –
17 | – | – | – | < 361 | 1.66 | – | < 2 | – | – | FC(F)(F)c1ncc(-c2ccc(C3(N4CCOCC4)COC3)cc2)cn1 [11a, 4-(3-(4-(2-(Trifluoromethyl)Pyrimidin-5-yl)Phenyl)Oxetan-3-yl)Morpholine] | –
18 | – | – | – | 432 | 1.31 | – | < 2 | – | – | O=C(c1ccc(-c2cnc(C(F)(F)F)nc2)cc1)N1CCOCC1 [11b, Morpholino(4-(2-(Trifluoromethyl)Pyrimidin-5-yl)Phenyl)Methanone] | –
19 | – | – | – | 393 | 0.331 | – | 11 | – | – | c1cc(C2(N3CCOCC3)COC2)ccc1N1CCOCC1 [12a, 4-(4-(3-Morpholinooxetan-3-yl)Phenyl)Morpholine] | –
20 | – | – | – | 364 | 0.444 | – | < 2 | – | – | O=C(c1ccc(N2CCOCC2)cc1)N1CCOCC1 [12b, 4-Morpholinonebenzene-4-Yl-Morpholine] | –
21 | – | – | – | – | – | – | – | – | 8.81 | COc1ccc(CNCc2ccccc2)cc1 [S1] | –

Row | Structure (SMILES) | solubility at 24 h ([1]; pH 3) [µM] | solubility at 24 h ([1]; pH 7.4) [µM] | solubility at 24 h ([1]; pH 10) [µM] | Papp at 1.5 h [2] [nm/s] | logD [3] | Kinetic solubility, in words [1] | HHEPG clearance [4] [μL min^−1 million^−1] | Change in SFlogD of the carbonyl-to-oxetane replacement ([3]; pH 7.4, amino-oxetane versus matched benzamide) | pKa [5] | HHEPG clearance, in words ([4]; compared with benzamide counterpart)
22 | COc1ccc(C2(N[C@@H](C)C(=O)N(C)C)COC2)cc1 [3a, (S)-2-((3-(4-Methoxyphenyl)Oxetan-3-yl)Amino)-N,N-Dimethylpropanamide] | 464 (≈ 129 µg/mL) | 472 (≈ 131 µg/mL) | 458 (≈ 127 µg/mL) | 273 | 0.418 | solubility comparable to their analogous benzamides | < 3 | −0.59 | – | –
